Data on seven molecules can be found in patent US7125854B2, “Bicyclic carbohydrates as antiprotozoal bioactive for the treatment of infections caused by parasites” (Kemin Pharma B.V.B.A., priority 2003, dated 2006).

Where two headings read alike, the source gives them in different places.

The subject of data set [1] is T. cruzi. The data set can be described thus: Screening against T. cruzi (Table 2). The data set is classed as cell-based, Trypanosoma cruzi.
For another data set, the system named is L-6 mammalian cells. The data set can be described thus: Cytotoxicity assay on L-6 mammalian cells. It is filed as cell-based.
The test system of data set [2] is T. brucei rhodesiense. The data set can be described thus: Screening against T. brucei rhodesiense (Table 2). The data set is classed as cell-based, Trypanosoma brucei rhodesiense.
The test system of data set [3] is Leishmania donovani MHOM/ET/67/L82. The data set can be described thus: Leishmania donovani amastigotes in primary peritoneal mouse macrophages, parasite growth after 96 hours. The data set is classed as cell-based. As to conditions: 96 hours of incubation, read-out: IC50 L. donovani. The protocol:
One strain of Leishmania spp. (Leishmania.donovani MHOM/ET/67/L82) is used. The strain is maintained in the hamster. Amastigotes are collected from the spleen of an infected hamster and spleen parasite burden is assessed using the Stauber technique or amastigotes are counted in the haemocytometer after 1:100 dilution in trypan blue.
Primary peritoneal mouse (CDI or NMRI) macrophages are collected 1 day after a macrophage production stimulation with an i.p injection of 2 ml of 2% starch in distilled water. All cultures and assays are conducted at 37° C. under an atmosphere of 5% CO2. Ten mg/ml compound stock solutions are prepared as advised by the supplier, otherwise dissolved in 100% DMSO. Stock solutions are kept at 4° C. for a maximum of 2 weeks, thereafter at −20° C. The compounds are pre-diluted to 1 mg/ml. Assays are performed in sterile 16-well tissue culture slides, each well containing 100 μl of the compound dilutions together with 100 μl of macrophage/parasite inoculum (4×10^5 macrophages/ml and 1.2×10^6 parasites/ml). The inoculum is prepared in RPMI-1640 medium, supplemented with 10% heat inactivated fetal calf serum. […] After 96 hours of incubation, parasite growth is microscopically assessed after staining the cells with a 10% Giemsa solution. The results are expressed as IC50 calculated by linear regression analysis. […]

Data set [4] relates to P. falciparum. The data set can be described thus: Screening against P. falciparum (Table 2). The data set is classed as cell-based, Plasmodium falciparum.
In data set [5] the test system is T. cruzi. The data set can be described thus: WHO screening against T. cruzi (Table 1). It is filed as cell-based, Trypanosoma cruzi. Conditions: Table 1, WHO screening.
A further data set relates to human cell line (MRC-5). The data set can be described thus: Cytotoxicity assay on a human cell line (MRC-5). It is filed as cell-based. As to conditions: read-out: Cytox.
The subject of data set [6] is T. brucei rhodesiense. The data set can be described thus: WHO screening against Trypanosoma brucei (Table 1). It is filed as cell-based. Conditions: read-out: IC50 T. brucei rhodesiense. The source says:
(§1) Compound A1 was screened against Trypanosoma brucei by World Health Organization (Switzerland) using its established screening service.

The test system of data set [7] is P. falciparum. The data set can be described thus: WHO screening against P. falciparum (Table 1). Conditions: Plasmodium falciparum; Table 1, WHO screening. The data set is classed as cell-based.
From the text: as §1

For a further data set, the system named is sleeping sickness. As to conditions: cited from earlier work.
[8] abbreviates: Trypanosoma brucei, RHODESIENSE

Regarding `OC1C(Cc2ccccc2)OC2COC(c3ccc(Cl)cc3)OC2C1O` (stereo not shown) [Compound A3], the IC50 in the data set with T. cruzi [1] was 14300 nM; in the data set on L-6 mammalian cells it was 60000 nM; with T. brucei rhodesiense [2], 20400 nM; in data set [3], less than 980 nM; with P. falciparum [4], more than 13300 nM.

Turning to `O[C@@H]1[C@@H](O)[C@H](Sc2ccccc2)O[C@@H]2CO[C@@H](c3ccccc3)O[C@@H]12` [Compound A1], the IC50 in the data set on T. cruzi [5] was more than 32000 nM; in the data set on human cell line (MRC-5), more than 32000 nM; in the data set with T. brucei rhodesiense [6] (Table 1, WHO screening) it was 187 nM.

Regarding `CCN(CC)CCCC(C)Nc1ccnc2cc(Cl)ccc12` (stereo not shown) [Chloroquine], the IC50 in the data set with P. falciparum [7] was 14 nM; in the data set on P. falciparum [4] (Plasmodium falciparum), 5 nM.

In turn, `CC1CS(=O)(=O)CCN1/N=C/c1ccc([N+](=O)[O-])o1` (stereo not shown) [Nifurtimox] displayed an IC50 with T. cruzi [5] (Trypanosoma cruzi) of 1240 nM.

Regarding `Nc1nc(N)nc(Nc2ccc([As]3SCC(CO)S3)cc2)n1` (stereo not shown) [Melarsoprol], the “patients treated killed outright” value with sleeping sickness (patients, injected) was 3–10%. In addition, the “patients the drug fails to cure” value in the data set on sleeping sickness (some areas of Africa (Omugo, Uganda; Ibba, South Sudan)) was 25–30%. The IC50 with T. brucei rhodesiense [2] (setting [8]) was determined as 10 nM.

As to `Cc1ccc(C(=O)Nc2ccc(S(=O)(=O)O)c3cc(S(=O)(=O)O)cc(S(=O)(=O)O)c23)cc1NC(=O)c1cccc(NC(=O)Nc2cccc(C(=O)Nc3cc(C(=O)Nc4ccc(S(=O)(=O)O)c5cc(S(=O)(=O)O)cc(S(=O)(=O)O)c45)ccc3C)c2)c1` [Suramin], the IC50 in the data set with T. brucei rhodesiense [6] (setting [8]) worked out at 210 nM.

Turning to `CCCCCCCCCCCCCCCCOP(=O)([O-])OCC[N+](C)(C)C` [Miltefosine], in data set [3] (Leishmania donovani, Macrophage), the IC50 is 470 nM.
